Key:
[1] = molecular target: T1, Steroid 17-alpha-hydroxylase/17,20 lyase (Homo sapiens, UniProt P05093); experiment: Inhibition of CYP17 in human testicular microsomes using 17alpha-hydroxypregnenolone as substrate assessed as decrease in DHEA levels at 1 nM after 90 mins by ELISA relative to control; set-up: species or system Testis
T1 sequence (P05093 whole entry): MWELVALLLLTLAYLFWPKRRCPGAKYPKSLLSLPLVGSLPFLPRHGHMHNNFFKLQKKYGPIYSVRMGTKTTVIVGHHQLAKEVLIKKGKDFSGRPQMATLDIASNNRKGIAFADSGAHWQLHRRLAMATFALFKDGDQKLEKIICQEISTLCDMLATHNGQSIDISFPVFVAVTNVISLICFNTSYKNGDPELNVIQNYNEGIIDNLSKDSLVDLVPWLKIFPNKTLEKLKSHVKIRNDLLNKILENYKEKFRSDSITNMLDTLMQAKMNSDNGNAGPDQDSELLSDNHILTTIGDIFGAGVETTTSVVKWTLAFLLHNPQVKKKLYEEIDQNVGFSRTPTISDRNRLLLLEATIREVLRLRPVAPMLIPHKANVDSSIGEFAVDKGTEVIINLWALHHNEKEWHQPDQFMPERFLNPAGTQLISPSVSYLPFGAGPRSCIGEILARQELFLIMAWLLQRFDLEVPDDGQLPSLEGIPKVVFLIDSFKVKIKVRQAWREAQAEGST

[2] = molecular target: T2, CYP21 (steroid 21-hydroxylase) (Homo sapiens, UniProt P08686); experiment: Inhibition of human CYP21 transfected in HEK293 cells assessed as decrease in conversion of progesterone to 11-deoxycorticosterone preincubated for 5 hrs followed by progesterone addition measured after 20 hrs by ELISA; format: cell-based; set-up: concentration or dose not given beside the values; settings: HEK293 cells transfected with human CYP21, probe progesterone
T2 sequence (P08686 whole entry): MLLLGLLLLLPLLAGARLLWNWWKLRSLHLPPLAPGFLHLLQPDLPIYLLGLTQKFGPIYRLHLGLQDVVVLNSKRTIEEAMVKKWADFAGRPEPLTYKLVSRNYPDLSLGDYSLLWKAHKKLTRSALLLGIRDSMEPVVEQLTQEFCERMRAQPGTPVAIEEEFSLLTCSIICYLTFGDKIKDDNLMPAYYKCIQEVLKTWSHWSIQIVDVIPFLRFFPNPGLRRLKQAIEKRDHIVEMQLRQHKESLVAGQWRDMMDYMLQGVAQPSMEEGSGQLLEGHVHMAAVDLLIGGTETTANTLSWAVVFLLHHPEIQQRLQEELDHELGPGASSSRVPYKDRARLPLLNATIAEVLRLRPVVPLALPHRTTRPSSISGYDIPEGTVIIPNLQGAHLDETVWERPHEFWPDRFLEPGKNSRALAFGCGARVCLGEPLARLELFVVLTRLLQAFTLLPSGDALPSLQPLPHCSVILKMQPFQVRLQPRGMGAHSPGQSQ

[3] = molecular target: T1, Steroid 17-alpha-hydroxylase/17,20 lyase; experiment: Inhibition of CYP17 in human H295R cells assessed as decrease in testosterone levels after 24 hrs by ELISA; format: cell-based
[4] = molecular target: T1, Steroid 17-alpha-hydroxylase/17,20 lyase; experiment: Inhibition of CYP17 in human testicular microsomes using 17alpha-hydroxypregnenolone as substrate assessed as decrease in DHEA levels after 90 mins by ELISA; set-up: species or system Testis
[5] = Half life in human liver microsomes at 1 uM by LC-MS/MS analysis
CYP11B = molecular target: T3, CYP11B (Rattus norvegicus, UniProt P15393+P30099); experiment: Inhibition of Sprague-Dawley rat adrenal mitochondrial CYP11B assessed as decrease in conversion of 11-deoxycortisol to cortisol at 100 nM incubated for 60 mins by ELISA relative to control; format: protein assay; settings: adrenal mitochondria, probe 11-deoxycortisol
T3 sequence (P30099 whole entry): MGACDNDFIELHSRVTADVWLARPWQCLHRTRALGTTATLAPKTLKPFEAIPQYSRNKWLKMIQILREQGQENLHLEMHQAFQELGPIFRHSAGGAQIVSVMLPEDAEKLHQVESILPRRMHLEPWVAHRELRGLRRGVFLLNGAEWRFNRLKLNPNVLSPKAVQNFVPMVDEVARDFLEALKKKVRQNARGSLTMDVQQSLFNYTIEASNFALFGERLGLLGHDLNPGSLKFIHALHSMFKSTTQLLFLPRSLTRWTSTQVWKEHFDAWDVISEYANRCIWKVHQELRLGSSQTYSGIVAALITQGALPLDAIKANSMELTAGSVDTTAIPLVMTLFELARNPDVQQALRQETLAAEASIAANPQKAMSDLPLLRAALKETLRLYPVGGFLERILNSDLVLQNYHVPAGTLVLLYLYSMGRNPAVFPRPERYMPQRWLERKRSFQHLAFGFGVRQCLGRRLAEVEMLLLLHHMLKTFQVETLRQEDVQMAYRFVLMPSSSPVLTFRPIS
T3 sequence (P15393 whole entry): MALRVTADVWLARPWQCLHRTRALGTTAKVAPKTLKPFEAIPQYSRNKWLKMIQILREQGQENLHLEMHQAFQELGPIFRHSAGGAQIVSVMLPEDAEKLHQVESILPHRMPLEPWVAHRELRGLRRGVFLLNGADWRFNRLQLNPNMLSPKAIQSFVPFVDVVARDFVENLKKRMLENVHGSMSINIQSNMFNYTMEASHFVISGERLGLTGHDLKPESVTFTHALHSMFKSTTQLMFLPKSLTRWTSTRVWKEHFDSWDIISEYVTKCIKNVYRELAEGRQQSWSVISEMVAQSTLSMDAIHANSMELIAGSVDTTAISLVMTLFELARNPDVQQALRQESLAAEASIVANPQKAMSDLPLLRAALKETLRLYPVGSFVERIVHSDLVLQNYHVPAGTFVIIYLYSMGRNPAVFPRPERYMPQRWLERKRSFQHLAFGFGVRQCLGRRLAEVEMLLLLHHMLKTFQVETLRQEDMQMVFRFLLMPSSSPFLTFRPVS

[6] = molecular target: T1, Steroid 17-alpha-hydroxylase/17,20 lyase; experiment: Inhibition of CYP17 in human testicular microsomes using 17alpha-hydroxypregnenolone as substrate assessed as decrease in DHEA levels at 10 nM after 90 mins by ELISA relative to control; set-up: species or system Testis; settings: 1.5 h

Compound | IC50 [1] [µM] | inhibition at 20 h [2] [%] | IC50 [3] [µM] | IC50 [4] [µM] | half-life at 1 µM [5] [min] | inhibition at 1 h, 0.1 µM (CYP11B) [%] | inhibition at 0.01 µM [6] [%]
C=C1C[C@@H]2[C@H](CC[C@]3(C)C(c4cccnc4)=CC[C@@H]23)[C@@]2(C)CCC(=O)C=C12 | 0.01 to 0.1 | ≥ 50 | ≤ 0.015 | ≤ 0.011 | 1 to 50 |  | 
Cc1cncc(C2=CC[C@H]3[C@@H]4CC=C5N(C)C(=O)C[C@]5(C)[C@H]4CC[C@]23C)c1 |  | 10 to 50 |  |  |  | < 32 | 
CC1C[C@@H]2[C@H](CC[C@]3(C)C(c4cncc(F)c4)=CC[C@@H]23)[C@@]2(C)CCC(=O)C=C12 (some centres not stated) | > 0.1 | ≥ 50 | ≤ 0.015 | ≤ 0.011 |  |  | 
C[C@]12CC[C@H]3[C@@H](CCC4=CC(=O)NCC[C@@]43C)C1=CC=C2c1cncc(F)c1 | > 0.1 | 10 to 50 | ≤ 0.015 |  | 1 to 50 |  | 
CC1C[C@@H]2[C@H](CC[C@]3(C)C(c4cccnc4)=CC[C@@H]23)[C@@]2(C)CC/C(=N\O)C=C12 (some centres not stated) | > 0.1 | 10 to 50 |  |  | 1 to 50 |  | 
C[C@]12CC[C@H]3[C@@H](CCC4=CC(=O)CC[C@@]43C)C1=CC=C2c1cncnc1 | 0.01 to 0.1 | ≥ 50 |  | ≤ 0.011 | 1 to 50 |  | 
CC1C[C@@H]2[C@H](CC[C@]3(C)C(c4cccnc4)=CC[C@@H]23)[C@@]2(C)CCC(=O)C=C12 (some centres not stated) | 0.01 to 0.1 | ≥ 50 | ≤ 0.015 | ≤ 0.011 | 1 to 50 |  | 
CC(=O)N1CCC[C@@]2(C)[C@@H](CC[C@@H]3[C@@H]2CC[C@]2(C)C(n4ccnc4)=CC[C@@H]32)C1 |  | 10 to 50 |  |  |  | ≥ 50 | 
C[C@]12CC[C@H]3[C@@H](CC=C4C[C@H](NC(=O)C5CC5)CC[C@@]43C)C1=CC=C2n1ccnc1 |  | 10 to 50 |  |  |  | ≥ 50 | 
CN1C(=O)C[C@@]2(C)C1=CC[C@@H]1[C@@H]2CC[C@]2(C)C(n3ccnc3)=CC[C@@H]12 |  | 10 to 50 |  |  |  | ≥ 50 | 
C[C@]12C=CC(=O)C=C1C1(CC1)C[C@@H]1[C@@H]2CC[C@]2(C)C(c3cccnc3)=CC[C@@H]12 | ≤ 0.01 | 10 to 50 | ≤ 0.015 | ≤ 0.011 | 1 to 50 |  | 
C[C@]12CCC(=O)C=C1C1(CC1)C[C@@H]1[C@@H]2CC[C@]2(C)C(c3cccnc3)=CC[C@@H]12 | ≤ 0.01 | ≥ 50 | ≤ 0.015 | ≤ 0.011 | 1 to 50 |  | 
CN1C(=O)CC[C@@]2(C)C1=CC[C@@H]1[C@@H]2CC[C@]2(C)C(n3cncc3C#N)=CC[C@@H]12 |  | < 10 |  |  |  | < 32 | 
CC1C[C@H]2C3=CC=C(c4cccnc4)[C@@]3(C)CC[C@@H]2[C@@]2(C)CCC(=O)C=C12 (some centres not stated) | ≤ 0.01 | ≥ 50 |  | ≤ 0.011 | 1 to 50 |  | 
C[C@]12CCCN(S(C)(=O)=O)CC1CC[C@@H]1[C@@H]2CC[C@]2(C)C(n3ccnc3)=CC[C@@H]12 (some centres not stated) |  |  |  |  |  | ≥ 50 | 
CC1C[C@H]2C3=CC=C(c4cccnc4)[C@@]3(C)CC[C@@H]2[C@@]2(C)C=CC(=O)C=C12 (some centres not stated) | ≤ 0.01 | ≥ 50 |  |  | 1 to 50 |  | ≥ 80
C[C@]12CC[C@H]3[C@@H](CCC4=CC(=O)C=C[C@@]43C)C1=CC=C2c1cccnc1 | 0.01 to 0.1 | ≥ 50 | ≤ 0.015 | ≤ 0.011 | 1 to 50 |  | 
C[C@]12CC[C@H]3[C@@H](CCC4=CC(=O)CC[C@@]43C)C1=CC=C2c1cncc(F)c1 | 0.01 to 0.1 | ≥ 50 | ≤ 0.015 | ≤ 0.011 | 1 to 50 |  | 
C=C1C[C@@H]2[C@H](CC[C@]3(C)C(c4cncc(F)c4)=CC[C@@H]23)[C@@]2(C)C=CC(=O)C=C12 | > 0.1 |  | ≤ 0.015 | ≤ 0.011 | 1 to 50 |  | 
C[C@]12CC[C@H]3[C@@H](C=CC4=CC(=O)CC[C@@]43C)C1=CC=C2c1cccnc1 | 0.01 to 0.1 | ≥ 50 |  | ≤ 0.011 | 1 to 50 |  | 
CC1C[C@H]2C3=CC=C(c4cncc(F)c4)[C@@]3(C)CC[C@@H]2[C@@]2(C)CCNC(=O)C=C12 (some centres not stated) | 0.01 to 0.1 | 10 to 50 |  |  | 1 to 50 |  | 
C[C@]12CCC(=O)C=C1C1CC1[C@@H]1[C@@H]2CC[C@]2(C)C(c3cccnc3)=CC[C@@H]12 (some centres not stated) | > 0.1 | ≥ 50 |  |  | 1 to 50 |  | 
CC1C[C@H]2C3=CC=C(c4cncc(F)c4)[C@@]3(C)CC[C@@H]2[C@@]2(C)CCC(=O)C=C12 (some centres not stated) | ≤ 0.01 | 10 to 50 | ≤ 0.015 |  | 1 to 50 |  | 
C[C@]12CCNC(=O)C=C1C1CC1[C@@H]1[C@@H]2CC[C@]2(C)C(c3cccnc3)=CC[C@@H]12 (some centres not stated) | > 0.1 | ≥ 50 |  | ≤ 0.011 | 1 to 50 |  | 
CC1C[C@@H]2[C@H](CC[C@]3(C)C(c4cccnc4)=CC[C@@H]23)[C@@]2(C)C=CC(=O)C=C12 (some centres not stated) | ≤ 0.01 | ≥ 50 | ≤ 0.015 |  | 1 to 50 |  | 
C[C@]12CCNC(=O)C=C1C1(CC1)C[C@@H]1[C@@H]2CC[C@]2(C)C(c3cccnc3)=CC[C@@H]12 | ≤ 0.01 | 10 to 50 | ≤ 0.015 | ≤ 0.011 | 1 to 50 |  | 
C=C1CC2[C@H](CC[C@]3(C)C(c4cccnc4)=CC[C@@H]23)C2(C)C=CC(=O)C=C12 (single isomer, unassigned) | ≤ 0.01 | ≥ 50 | ≤ 0.015 | ≤ 0.011 | 1 to 50 |  | 
CC1C[C@@H]2[C@H](CC[C@]3(C)C(c4cccnc4)CC[C@@H]23)[C@@]2(C)C=CC(=O)C=C12 (some centres not stated) | ≤ 0.01 |  |  | ≤ 0.111 | 1 to 50 |  | 
CCC1C[C@H]2C3=CC=C(c4cccnc4)[C@@]3(C)CC[C@@H]2[C@@]2(C)CCC(=O)C=C12 (some centres not stated) | 0.01 to 0.1 | 10 to 50 |  | ≤ 0.011 | 1 to 50 |  | 

From ChEMBL document CHEMBL3882724 (2013)
